Measurements: the CheMixHub viscosity set
Several values for one entry are separate records, joined by “and”; a condition that tells them apart may be missing. Equal values may be shown once. ± gives the uncertainty stated by the source.

Assay: xn = mol fraction of the nth substance listed

CCCCCCCCCCCCCCCCCCCC + CCCCCCCCCCCCCCCC
viscosity [mPa·s], 101.3 kPa
Conditions	x1 = 0.2	x1 = 0.4	x1 = 0.5	x1 = 0.599	x1 = 0.8
293.2 K	3.875 ± 0.043	–	–	–	–
303.2 K	3.045 ± 0.034	3.481 ± 0.039	3.77 ± 0.042	4.065 ± 0.046	–
313.2 K	2.459 ± 0.028	2.785 ± 0.031	3.011 ± 0.034	3.223 ± 0.036	3.602 ± 0.04

CCCN + c1ccccc1
viscosity [mPa·s], 101 kPa
Conditions	x1 = 0.007866	x1 = 0.01864	x1 = 0.02795	x1 = 0.03664	x1 = 0.04697	x1 = 0.0579	x1 = 0.06586	x1 = 0.07593	x1 = 0.08436
303.15 K	0.5618 ± 0.0043	0.5605 ± 0.0043	0.5588 ± 0.0043	0.5574 ± 0.0043	0.5554 ± 0.0043	0.5534 ± 0.0043	0.552 ± 0.0042	0.5501 ± 0.0042	0.548 ± 0.0042
313.15 K	0.4898 ± 0.0039	0.4864 ± 0.0039	0.4837 ± 0.0039	0.4817 ± 0.0039	0.4766 ± 0.0039	0.4725 ± 0.0039	0.4704 ± 0.0039	0.467 ± 0.0038	0.4636 ± 0.0038

CCCCOC(C)=O + O
303.15 K, 101 kPa
Conditions	viscosity [mPa·s]
x2 = 0.0201	0.64 ± 0.005
x2 = 0.04	0.641 ± 0.005
x2 = 0.0599	0.639 ± 0.005

CCCCOC(C)=O + CCCCCCCCCCCC
298.15 K, 101.3 kPa
Conditions	viscosity [mPa·s]
x1 = 0.133	1.231 ± 0.011
x1 = 0.2982	1.09 ± 0.0096
x1 = 0.4364	0.9867 ± 0.0087
x1 = 0.4791	0.9597 ± 0.0085
x1 = 0.5426	0.9188 ± 0.0082
x1 = 0.683	0.8358 ± 0.0075
x1 = 0.7904	0.7782 ± 0.007
x1 = 0.8705	0.7393 ± 0.0067
x1 = 0.9238	0.7176 ± 0.0065
x1 = 0.9757	0.6938 ± 0.0063

CCCOC(=O)c1ccccc1 + CCCCCC
101 kPa
Conditions	viscosity [mPa·s]
298.15 K, x2 = 0.0545	2.09 ± 0.066
298.15 K, x2 = 0.1249	1.794 ± 0.057
298.15 K, x2 = 0.1605	1.659 ± 0.053
298.15 K, x2 = 0.2369	1.409 ± 0.045
298.15 K, x2 = 0.2765	1.298 ± 0.041
298.15 K, x2 = 0.33	1.155 ± 0.037
298.15 K, x2 = 0.3772	1.043 ± 0.033
298.15 K, x2 = 0.4847	0.827 ± 0.026
298.15 K, x2 = 0.5259	0.756 ± 0.024
298.15 K, x2 = 0.5689	0.69 ± 0.022
298.15 K, x2 = 0.6152	0.627 ± 0.02
298.15 K, x2 = 0.6632	0.569 ± 0.018
298.15 K, x2 = 0.7031	0.525 ± 0.017
298.15 K, x2 = 0.7496	0.479 ± 0.015
298.15 K, x2 = 0.7954	0.448 ± 0.014
298.15 K, x2 = 0.8308	0.42 ± 0.014
298.15 K, x2 = 0.8752	0.399 ± 0.013
298.15 K, x2 = 0.9201	0.371 ± 0.012
298.15 K, x2 = 0.9574	0.351 ± 0.011
308.15 K, x2 = 0.0876	1.62 ± 0.052
308.15 K, x2 = 0.1454	1.451 ± 0.046
308.15 K, x2 = 0.1923	1.32 ± 0.042
308.15 K, x2 = 0.2499	1.174 ± 0.037
308.15 K, x2 = 0.3064	1.046 ± 0.033
308.15 K, x2 = 0.3543	0.95 ± 0.03
308.15 K, x2 = 0.4116	0.845 ± 0.027
308.15 K, x2 = 0.4488	0.785 ± 0.025
308.15 K, x2 = 0.5082	0.698 ± 0.022
308.15 K, x2 = 0.5509	0.643 ± 0.021
308.15 K, x2 = 0.5926	0.594 ± 0.019
308.15 K, x2 = 0.6346	0.55 ± 0.018
308.15 K, x2 = 0.6803	0.507 ± 0.016
308.15 K, x2 = 0.7241	0.468 ± 0.015
308.15 K, x2 = 0.7719	0.433 ± 0.014
308.15 K, x2 = 0.8096	0.406 ± 0.013
308.15 K, x2 = 0.857	0.376 ± 0.012
308.15 K, x2 = 0.8946	0.354 ± 0.011
308.15 K, x2 = 0.9406	0.334 ± 0.011
318.15 K, x2 = 0.0693	1.388 ± 0.044
318.15 K, x2 = 0.1096	1.288 ± 0.041
318.15 K, x2 = 0.1613	1.172 ± 0.037
318.15 K, x2 = 0.221	1.048 ± 0.033
318.15 K, x2 = 0.2711	0.954 ± 0.03
318.15 K, x2 = 0.3284	0.856 ± 0.027
318.15 K, x2 = 0.3767	0.781 ± 0.025
318.15 K, x2 = 0.432	0.705 ± 0.023
318.15 K, x2 = 0.4801	0.644 ± 0.021
318.15 K, x2 = 0.5314	0.586 ± 0.019
318.15 K, x2 = 0.5757	0.54 ± 0.017
318.15 K, x2 = 0.6264	0.494 ± 0.016
318.15 K, x2 = 0.6694	0.457 ± 0.015
318.15 K, x2 = 0.7292	0.411 ± 0.013
318.15 K, x2 = 0.76	0.391 ± 0.013
318.15 K, x2 = 0.8056	0.362 ± 0.012
318.15 K, x2 = 0.8466	0.34 ± 0.011
318.15 K, x2 = 0.892	0.32 ± 0.01
318.15 K, x2 = 0.9292	0.304 ± 0.01

CCCN + CCCCCCCCCCO
viscosity [mPa·s], 101.33 kPa
Conditions	x1 = 0.0915	x1 = 0.1817	x1 = 0.283	x1 = 0.3906	x1 = 0.4858	x1 = 0.59	x1 = 0.718	x1 = 0.8181	x1 = 0.9058
303.15 K	7.465 ± 0.041	6.249 ± 0.035	5.036 ± 0.03	3.906 ± 0.023	3.037 ± 0.018	2.211 ± 0.013	1.384 ± 0.0086	0.8865 ± 0.0057	0.5706 ± 0.0041
313.15 K	5.86 ± 0.034	4.82 ± 0.029	3.89 ± 0.023	2.973 ± 0.018	2.284 ± 0.014	1.654 ± 0.01	1.051 ± 0.0067	0.7052 ± 0.0047	0.481 ± 0.0037

CC(C)c1ccccc1 + CCCCCCCCCCCCCCCC
viscosity [mPa·s], 100 kPa
Conditions	x2 = 0.0536	x2 = 0.1093	x2 = 0.2207	x2 = 0.2969	x2 = 0.4217	x2 = 0.5376	x2 = 0.6083	x2 = 0.7347	x2 = 0.823	x2 = 0.8933
298.15 K	0.834 ± 0.008	0.921 ± 0.009	1.117 ± 0.011	1.249 ± 0.013	1.525 ± 0.015	1.815 ± 0.018	2.002 ± 0.02	2.356 ± 0.024	2.602 ± 0.026	2.783 ± 0.028
308.15 K	0.77 ± 0.008	0.846 ± 0.009	1.018 ± 0.01	1.136 ± 0.011	1.348 ± 0.014	1.561 ± 0.016	1.687 ± 0.017	1.932 ± 0.019	2.098 ± 0.021	2.236 ± 0.022
318.15 K	0.688 ± 0.007	0.76 ± 0.008	0.904 ± 0.009	1.003 ± 0.01	1.176 ± 0.012	1.34 ± 0.013	1.444 ± 0.015	1.629 ± 0.016	1.756 ± 0.018	1.859 ± 0.019

CCCCCCCC[N+](C)(C)CCOCCO.Cc1cc(Cl)ccc1OCC(=O)[O-] + CCCCCCCC[N+](C)(C)CCOCCO.COc1c(Cl)ccc(Cl)c1C(=O)[O-]
100 kPa, x1 = 0.58
Conditions	viscosity
293.15 K	12650 ± 4400 mPa·s and 12650 ± 970 mPa·s
303.15 K	4260 ± 280 mPa·s
313.15 K	1780 ± 94 mPa·s
323.15 K	831.5 ± 37 mPa·s

CCCCOC(C)=O + C1COCCO1
303.15 K, 101.3 kPa
Conditions	viscosity [mPa·s]
x2 = 0.1002	0.6618 ± 0.0045
x2 = 0.1988	0.682 ± 0.0046
x2 = 0.2997	0.7051 ± 0.0047
x2 = 0.3963	0.7333 ± 0.0048
x2 = 0.4977	0.7684 ± 0.005
x2 = 0.6024	0.809 ± 0.0052
x2 = 0.7009	0.859 ± 0.0055
x2 = 0.7968	0.9174 ± 0.0058
x2 = 0.9016	0.9976 ± 0.0063

Clc1ccccc1Cl + CC#N
308.15 K, 101 kPa
Conditions	viscosity [mPa·s]
x1 = 0.1003	0.3803 ± 0.0088
x1 = 0.2063	0.4569 ± 0.01
x1 = 0.3069	0.5299 ± 0.011
x1 = 0.4058	0.6077 ± 0.013
x1 = 0.4918	0.676 ± 0.014
x1 = 0.5925	0.7617 ± 0.016
x1 = 0.6956	0.8443 ± 0.017
x1 = 0.7945	0.9395 ± 0.019
x1 = 0.9016	1.027 ± 0.021

CCCN + CNC(C)=O
308.15 K, 101 kPa
Conditions	viscosity [mPa·s]
x2 = 0.0288	0.3203 ± 0.011
x2 = 0.161	0.4788 ± 0.011
x2 = 0.322	0.6904 ± 0.012
x2 = 0.4077	0.8508 ± 0.013
x2 = 0.5208	1.16 ± 0.015
x2 = 0.6414	1.544 ± 0.017
x2 = 0.7368	1.882 ± 0.018
x2 = 0.8217	2.222 ± 0.02
x2 = 0.9755	3.191 ± 0.025

CCCN + C1CCCCC1
viscosity, 101 kPa
Conditions	x1 = 0.00761	x1 = 0.01688	x1 = 0.02821	x1 = 0.03652	x1 = 0.04831	x1 = 0.05697	x1 = 0.06516	x1 = 0.07467	x1 = 0.08588
303.15 K	0.8113 ± 0.0056 mPa·s	0.8039 ± 0.0055 mPa·s	0.7953 ± 0.0055 mPa·s	0.789 ± 0.0055 mPa·s	0.7803 ± 0.0054 mPa·s	0.7736 ± 0.0054 mPa·s	0.7669 ± 0.0053 mPa·s	0.7583 ± 0.0053 mPa·s	0.7506 ± 0.0053 mPa·s
313.15 K	0.7093 ± 0.005 mPa·s and 0.6999 ± 0.005 mPa·s	0.6903 ± 0.0049 mPa·s	0.6849 ± 0.0049 mPa·s	0.6772 ± 0.0049 mPa·s	0.67 ± 0.0048 mPa·s	0.6638 ± 0.0048 mPa·s	0.6564 ± 0.0048 mPa·s	0.6488 ± 0.0047 mPa·s	–
